Source: patent publication US8119589B2, “Modulation of CD4+ T cell responses by a tick saliva protein, Salp15 and polypeptides derived therefrom” (University of North Carolina at Charlotte, priority 2004, dated 2012)
Where a SMILES comes first, the peptide text is derived from it.

Experiments:
CD4+ T cells [1] = experiment: Lipid raft redistribution (CTB594 staining, receptor capping) in activated CD4+ T cells; type: cell-based, mouse; settings: pretreatment with peptide 0.2 μg/mL; anti-CD3/CD28 20 min
Experimental: (§1) Naïve CD4+ T cells from C3H/HeN, Balb/c, and B10.BR mice were purified as previously described (Anguita et al., 2002). CD4+ T cells were preincubated in Click's modified Bruff's Medium (Sigma Chemical Co., St. Louis, Mo., U.S.A.) for 10 minutes at 37° C. with and without Salp15 (50 μg/mL) and stimulated for 20 min or the indicated times at 37° C. with 10 μg/mL of anti-CD3ε, 1 μg/mL of anti-CD28, and 10 μg/mL of anti-armenian and syrian hamster IgG (BD Biosciences Pharmingen, San Jose, Calif., U.S.A.). Jurkat (E6-1) cells were stimulated using 5 μg/mL of OKT3 mAb (eBioscience, San Diego, Calif., U.S.A.) and 1 μg/mL of anti-human CD28 cross linked with 5 μg/mL anti-mouse IgG for the indicated times.
For the visualization of lipid rafts, phospho-tyrosine, and cytoskeleton reorganization, CD4^+, CD8^+ or Jurkat cells were cytospun for 10 minutes at 1000 RPM onto positively charged microslides (Fisher Scientific, Hampton, N.H., U.S.A.). The cells were fixed with 3.7% paraformaldehyde (Sigma Chemical Co.) for 15 minutes and stained with CTB594 (Molecular Probes, Eugene, Oreg., U.S.A.), AlexaFluor488 labeled phalloidin (Molecular Probes) or (1:50) biotin-conjugated anti-p-Tyr (PY99) followed by Streptavidin-AlexaFluor594 (1:100, Molecular Probes). For p-LAT and p-PLCγ1 staining, fixed cells were treated with PBS containing 0.1% Triton-X 100 and 100 mM glycine for 15 min at room temperature and stained using rabbit p-LAT (Tyr^191) or rabbit anti-p-PLCγ1 (Tyr^783) probed with anti-rabbit IgG488 (Molecular Probes).
For receptor capping studies, mouse primary B and CD11^+ cells were purified by positive selection using biotin anti-mouse CD45R/B220 clone RA3-6B2 and biotin anti-mouse CD11b clone M1/70 (BD Biosciences Pharmingen) respectively, followed by incubation with magnetic microbeads. The cells were analyzed for receptor capping using 25 μg/mL anti-mouse IgM and 25 μg/mL anti-mouse CD16/CD32 respectively, cross-linked with 25 μg/mL of anti-rat IgG594 for 10 min in the presence or absence of 50 μg/mL of Salp15. […]

sCD4 = molecular target: T1, sCD4 (Homo sapiens, UniProt P01730); experiment: Microtiter binding of sCD4-HRP to plate-bound Salp15 and synthetic peptides
T1 construct: the extracellular four domains of CD4 (sCD4); purchased Research Diagnostics Inc., Flanders, N.J., U.S.A
Experimental: Purified sCD4 was coated overnight at 4° C. at the indicated concentrations in 0.1M sodium carbonate buffer (pH 9.5) in 96 well plates. Equimolar amounts of lysozyme were used as a non-specific control. The wells were washed, blocked with 10% FCS/PBS for 1 hr at R.T., and incubated with Salp15 (0.4 μM) for 2 hr at 37° C. Salp15 binding was detected by incubation with horseradish peroxidase (HRP)-conjugated anti-His antibody for 1 hr followed by microwell peroxidase substrate (KPL). The reaction was stopped by adding TMB stop solution (KPL). Chemically synthesized overlapping peptides of Salp15 were purchased from GenScript Corporation (Piscataway, N.J., U.S.A). To study the binding of Salp15 and peptides to sCD4, Salp15 (5 μg) and different peptides (0.5 μg) were coated. The wells were washed and blocked prior to incubation with sCD4-HRP (Research Diagnostics Inc., Flanders, N.J., U.S.A.). For competition assays, indicated concentrations of Salp15 or P11 were added to sCD4-HRP and incubated with plate bound P11 (0.1 μg). To estimate the effect of dithiothreitol (DTT) treatment of Salp15 on binding to sCD4, 0.5 μM Salp15 was treated with 10 mM DTT overnight and immobilized onto microtiter plate followed by blocking and incubation with sCD4-HRP.
Dissociation constants were determined by non-linear curve fit. The results are expressed as the mean±S.E. of 3 to 5 individual experiments.

CD4+ T cells [2] = experiment: IL-2 production (capture ELISA) by CD4+ T cells activated with plate bound anti-CD3 and soluble anti-CD28; type: cell-based, mouse; settings: for Inhibition of CD4+ T cell IL-2 production: pretreatment with peptide, 24 hr of activation
Experimental: FIG. 6D is a graph showing purified CD4^+ T cells were activated in vitro with plate bound anti-CD3 and soluble anti-CD28 in the absence or presence of Salp15 (50 μg/mL), P11, or P8. The supernatants were analyzed at 24 hr of activation for IL-2 levels by capture ELISA.
as §1

Compound	Lipid rafts clustering in response to T cell activation (CD4+ T cells [1])	Saturable binding to sCD4 with increasing concentrations (sCD4)	Inhibition of CD4+ T cell IL-2 production (CD4+ T cells [2])	Activity for modulating naïve CD4+ T cell activation among the tested polypeptide fragments (CD4+ T cells [2])	Binding of overlapping synthetic peptides to sCD4 (sCD4; peptides 0.5 μg coated, sCD4-HRP)
NCTFLCKHGNDVNVTLNLPE (listed as Ixodes scapularis) [Peptide P8]	did not show any effect	no binding	did not exert any inhibition		
EKNKCVGHIPGC (listed as Ixodes scapularis) [Peptide P11-2]		saturable binding		highest activity	
CC[C@H](C)[C@H](NC(=O)[C@H](Cc1c[nH]cn1)NC(=O)CNC(=O)[C@@H](NC(=O)[C@H](CS)NC(=O)[C@H](CCCCN)NC(=O)[C@H](CC(N)=O)NC(=O)[C@H](CCCCN)NC(=O)[C@H](CCC(=O)O)NC(=O)[C@H](C)NC(=O)[C@H](CS)NC(=O)[C@@H](NC(=O)[C@H](CCC(N)=O)NC(=O)CNC(=O)[C@H](CC(N)=O)NC(=O)[C@@H]1CCCN1C(=O)CN)[C@@H](C)O)C(C)C)C(=O)N1CCC[C@H]1C(=O)NCC(=O)N[C@@H](CS)C(=O)O [Peptide P11] (H-GPNGQTCAEKNKCVGHIPGC-OH; N-terminus and C-terminus assumed)	reduction		dose dependent inhibition	highest activity	showed binding
